The source made the active and inactive calls. The rule behind the calls is not given here.
Assays:
[1] = tested on: ECa-109 cell line; assay: Induction of apoptosis in human EC109 cells assessed as early apoptotic cells at 20 uM incubated for 48 hrs by Annexin V/PI staining based flow cytometry method (reference value: 1.36%); assay type: functional
[2] = tested on: HepG2; assay: Induction of apoptosis in human HepG2 cells assessed as necrotic cells at 20 uM incubated for 48 hrs by Annexin V/PI staining based flow cytometry method (reference value: 0.57%); assay type: functional
[3] = tested on: HepG2; assay: Induction of apoptosis in human HepG2 cells assessed as late apoptotic cells at 20 uM incubated for 48 hrs by Annexin V/PI staining based flow cytometry method (reference value: 3.64%); assay type: functional
[4] = tested on: HepG2; assay: Induction of apoptosis in human HepG2 cells assessed as early apoptotic cells at 5 uM incubated for 48 hrs by Annexin V/PI staining based flow cytometry method (reference value: 3.31%); assay type: functional
[5] = tested on: ECa-109 cell line; assay: Induction of apoptosis in human EC109 cells assessed as late apoptotic cells at 10 uM incubated for 48 hrs by Annexin V/PI staining based flow cytometry method (reference value: 6.17%); assay type: functional
[6] = tested on: ECa-109 cell line; assay: Induction of apoptosis in human EC109 cells assessed as viable cells at 10 uM incubated for 48 hrs by Annexin V/PI staining based flow cytometry method (reference value: 91.7%); assay type: functional; conditions: read-out: Activity
[7] = tested on: HepG2; assay: Induction of apoptosis in human HepG2 cells assessed as viable cells at 20 uM incubated for 48 hrs by Annexin V/PI staining based flow cytometry method (reference value: 92.5%); assay type: functional; conditions: read-out: Activity
[8] = target: Signal transducer and activator of transcription 3 (Homo sapiens) (UniProt P40763); assay: Inhibition of STAT3 phosphorylation at Y705 residue in human HepG2 cells measured after 16 hrs by Western blotting analysis; assay type: cell-based; conditions: dose 2.5-20 µM, DDE = dose-dependent effect
Sequence of Signal transducer and activator of transcription 3 (Homo sapiens) (P40763 whole entry): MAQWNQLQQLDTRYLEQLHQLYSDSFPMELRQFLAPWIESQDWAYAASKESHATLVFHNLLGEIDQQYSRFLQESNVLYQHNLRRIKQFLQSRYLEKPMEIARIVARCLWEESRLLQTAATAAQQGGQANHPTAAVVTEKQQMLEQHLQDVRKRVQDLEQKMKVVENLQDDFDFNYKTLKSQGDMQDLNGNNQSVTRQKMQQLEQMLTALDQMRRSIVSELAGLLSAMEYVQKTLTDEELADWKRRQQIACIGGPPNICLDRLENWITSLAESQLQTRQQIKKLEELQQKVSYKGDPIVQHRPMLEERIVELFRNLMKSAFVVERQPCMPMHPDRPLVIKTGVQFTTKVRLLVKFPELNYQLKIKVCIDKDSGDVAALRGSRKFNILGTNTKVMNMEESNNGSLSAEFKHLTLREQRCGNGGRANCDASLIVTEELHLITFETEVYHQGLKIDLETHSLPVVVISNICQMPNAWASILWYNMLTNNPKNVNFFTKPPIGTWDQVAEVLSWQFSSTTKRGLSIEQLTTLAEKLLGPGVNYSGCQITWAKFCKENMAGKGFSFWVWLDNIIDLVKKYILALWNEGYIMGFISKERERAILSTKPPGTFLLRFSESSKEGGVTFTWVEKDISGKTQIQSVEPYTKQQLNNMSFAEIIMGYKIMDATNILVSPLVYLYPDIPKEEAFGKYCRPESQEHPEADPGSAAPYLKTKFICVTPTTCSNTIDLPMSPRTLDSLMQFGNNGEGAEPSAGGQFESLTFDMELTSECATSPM

[9] = target: Signal transducer and activator of transcription 3 (Homo sapiens) (UniProt P40763); assay: Inhibition of STAT3 dimerization in human HepG2 cells assessed as decrease in STAT3 dimer formation at 5 to 10 uM incubated for 24 hrs by SDS-PAGE based DSS crosslink assay; assay type: cell-based; conditions: dose 5-10 µM
[10] = target: Signal transducer and activator of transcription 3 (Homo sapiens) (UniProt P40763); assay: Binding affinity to STAT3 (unknown origin) expressed in Escherichia coli BL21 (DE3) assessed as thermal stability by measuring STAT3 accumulation at 55 to 80 degree C at 100 uM incubated for 30 mins by thermal shift assay
[11] = tested on: ECa-109 cell line; assay: Induction of apoptosis in human EC109 cells assessed as early apoptotic cells at 10 uM incubated for 48 hrs by Annexin V/PI staining based flow cytometry method (reference value: 1.36%); assay type: functional
[12] = tested on: HepG2; assay: Antitumor activity against human HepG2 cells xenografted in BALB/c athymic nude mouse assessed as decrease in Ki67 expression level at 20 to 40 mg/kg, ip administered daily for 24 days; assay type: functional, organism-based; conditions: dose 20-40 mg/kg, time 24.0 day
[13] = tested on: HepG2; assay: Induction of apoptosis in human HepG2 cells assessed as late apoptotic cells at 10 uM incubated for 48 hrs by Annexin V/PI staining based flow cytometry method (reference value: 3.64%); assay type: functional
[14] = target: Signal transducer and activator of transcription 3 (Homo sapiens) (UniProt P40763); assay: Inhibition of IL-6 induced STAT3 phosphorylation at Tyr705 residue in human EC109 cells preincubated for 16 hrs followed by IL-6 stimulation for 30 mins by Western blot analysis; assay type: cell-based; conditions: dose 2.5-20 µM, DDE = dose-dependent effect
[15] = Inhibition of IL-6/JAK/STAT3 signalling pathway in HEK-blue IL-6 cells incubated for 16 hrs by SEAP reporter gene based QUANTI- blue assay; assay type: cell-based; conditions: Homo sapiens, HEK-Blue IL-6, 16 h
[16] = tested on: HepG2; assay: Antitumor activity against human HepG2 cells xenografted in BALB/c athymic nude mouse assessed as decrease in STAT3 phosphorylation at Y705 residues at 20 to 40 mg/kg, ip administered daily for 24 days; assay type: functional, organism-based; conditions: dose 20-40 mg/kg, time 24.0 day
[17] = target: Signal transducer and activator of transcription 3 (Homo sapiens) (UniProt P40763); assay: Inhibition of STAT3 nuclear translocation in human HepG2 cells assessed as decrease in nuclear STAT3 level at 5 to 10 microM incubated overnight by immunofluorescence analysis; assay type: cell-based; conditions: dose 5-10 µM
[18] = target: Signal transducer and activator of transcription 3 (Homo sapiens) (UniProt P40763); assay: Inhibition of STAT3 dimerization in human HepG2 cells assessed as increase in STAT3 monomer expression at 5 to 10 uM incubated for 24 hrs by DSS crosslink assay; assay type: cell-based; conditions: dose 5-10 µM
[19] = tested on: HepG2; assay: Induction of cell cycle arrest in human HepG2 cells assessed as decrease in cells at S phase incubated for 24 hrs by flow cytometric analysis (reference value: 23.01%); assay type: functional; set-up: scale not given: the % may be the effect or the level left
[20] = tested on: ECa-109 cell line; assay: Induction of cell cycle arrest in human EC109 cells assessed as decrease in cells at S phase incubated for 24 hrs by flow cytometric analysis (reference value: 36.08%); assay type: functional; set-up: scale not given: the % may be the effect or the level left
[21] = tested on: HepG2; assay: Antitumor activity against human HepG2 cells xenografted in BALB/c athymic nude mouse assessed as tumor growth inhibition at 40 mg/kg, ip administered daily for 24 days relative to control; assay type: functional; conditions: HepG2, 576 h, time 24 day, read-out: TGI
[22] = tested on: ECa-109 cell line; assay: Induction of cell cycle arrest in human EC109 cells assessed as accumulation of cells at G0/G1 phase incubated for 24 hrs by flow cytometric analysis (reference value: 49.86%); assay type: functional
[23] = tested on: HepG2; assay: Induction of apoptosis in human HepG2 cells assessed as downregulation of cyclin D1 protein expression by Western blotting analysis; assay type: functional, cell-based; conditions: dose 2.5-20 µM, DDE = dose-dependent effect
[24] = tested on: ECa-109 cell line; assay: Induction of apoptosis in human EC109 cells assessed as downregulation of cyclin D1 protein expression by Western blotting analysis; assay type: functional, cell-based; conditions: dose 2.5-20 µM, DDE = dose-dependent effect
[25] = tested on: ECa-109 cell line; assay: Inhibition of cell migration in human EC109 cells incubated for 48 hrs by microscopic analysis based wound healing assay; assay type: functional; conditions: dose 5-10 µM, DDE = dose-dependent effect
[26] = tested on: HepG2; assay: Induction of apoptosis in human HepG2 cells assessed as necrotic cells at 10 uM incubated for 48 hrs by Annexin V/PI staining based flow cytometry method (reference value: 0.57%); assay type: functional
[27] = tested on: ECa-109 cell line; assay: Induction of apoptosis in human EC109 cells assessed as necrotic cells at 20 uM incubated for 48 hrs by Annexin V/PI staining based flow cytometry method (reference value: 0.73%); assay type: functional
[28] = tested on: HepG2; assay: Induction of apoptosis in human HepG2 cells assessed as downregulation of MCL-1 protein expression by Western blotting analysis; assay type: functional, cell-based; conditions: dose 2.5-20 µM, DDE = dose-dependent effect
[29] = tested on: ECa-109 cell line; assay: Induction of apoptosis in human EC109 cells assessed as viable cells at 5 uM incubated for 48 hrs by Annexin V/PI staining based flow cytometry method (reference value: 91.7%); assay type: functional; conditions: read-out: Activity
[30] = tested on: ECa-109 cell line; assay: Induction of apoptosis in human EC109 cells assessed as downregulation of MCL-1 protein expression by Western blotting analysis; assay type: functional, cell-based; conditions: dose 2.5-20 µM, DDE = dose-dependent effect
[31] = tested on: ECa-109 cell line; assay: Antitumor activity against human EC109 cells assessed as reduction in cell viability incubated for 72 hrs by MTT assay; assay type: functional, cell-based; conditions: ECa-109, 72 h
[32] = tested on: HepG2; assay: Induction of apoptosis in human HepG2 cells assessed as early apoptotic cells at 10 uM incubated for 48 hrs by Annexin V/PI staining based flow cytometry method (reference value: 3.31%); assay type: functional
[33] = tested on: HepG2; assay: Induction of cell cycle arrest in human HepG2 cells assessed as downregulation of cyclin D1 protein expression by Western blotting analysis; assay type: functional, cell-based; conditions: dose 2.5-20 µM, DDE = dose-dependent effect
[34] = Toxicity in BALB/c athymic nude mouse xenografted with human HepG2 cells assessed as effect on body weight at 20 to 40 mg/kg, ip administered daily for 24 days; assay type: organism-based; conditions: in vivo, 576 h, dose 20-40 mg/kg, time 24 day
[35] = target: Signal transducer and activator of transcription 3 (Homo sapiens) (UniProt P40763); assay: Inhibition of STAT3 phosphorylation at Y705 residue in human EC109 cells measured after 16 hrs by Western blotting analysis; assay type: cell-based; conditions: dose 2.5-20 µM, DDE = dose-dependent effect

Q: For `CCCn1c(-c2cccc(OC)c2)nc2cc3nc(-c4cccc(OC)c4)n(CCC)c3cc21`, which Activity [1] is on record?
A: 18.2%

Q: And the Activity [2]?
A: 0.91%

Q: And the Activity [3]?
A: 51.9%

Q: And the Activity [4]?
A: 8.44%

Q: What about the Activity [5] of the same compound?
A: 17.2%

Q: What about the viability at 10 µM [6] of the same compound?
A: 70.5%

Q: And the viability at 20 µM [7]?
A: 17.3%

Q: And the inhibition [8]?
A: Dde

Q: What about the inhibition [9] of the same compound?
A: Active

Q: What about the Activity [10] of the same compound?
A: Active

Q: And the Activity [11]?
A: 11.2%

Q: And the Activity [12]?
A: Active

Q: And the Activity [13]?
A: 39.4%

Q: What about the inhibition [14] of the same compound?
A: Dde

Q: What about the IC50 [15] of the same compound?
A: 2.61 µM

Q: What about the Activity [16] of the same compound?
A: Active

Q: And the inhibition [17]?
A: Active

Q: And the inhibition [18]?
A: Active

Q: What about the Activity [19] of the same compound?
A: 16.55%

Q: And the Activity [20]?
A: 28.53%

Q: What about the inhibition in vivo at 40 mg/kg [21] of the same compound?
A: 47.3%

Q: What about the Activity [22] of the same compound?
A: 58.73%

Q: And the Activity [23]?
A: Dde

Q: What about the Activity [24] of the same compound?
A: Dde

Q: And the inhibition [25]?
A: Dde

Q: And the Activity [26]?
A: 1.49%

Q: And the Activity [27]?
A: 3.56%

Q: What about the Activity [28] of the same compound?
A: Dde

Q: What about the viability at 5 µM [29] of the same compound?
A: 85.8%

Q: What about the Activity [30] of the same compound?
A: Dde

Q: What about the IC50 [31] of the same compound?
A: 3.63 µM

Q: And the Activity [32]?
A: 19.7%

Q: And the Activity [33]?
A: Dde

Q: What about the Activity [34] of the same compound?
A: Non-Toxic

Q: And the inhibition [35]?
A: Dde

From ChEMBL document CHEMBL5143695, “Benzobis(imidazole) derivatives as STAT3 signal inhibitors with antitumor activity” (Bioorg Med Chem, 2022)
